“And” between values parts separate entries of the source, which are not always exact repeats. Equal entries are not always repeated.
Legend:
[1] = Compound UV–VIS spectra in the presence of MgCl2 (chelation); assay type: physicochemical; conditions: 6 mM MgCl2, UV–VIS 250–600 nm
Protocol: The ability of compounds to chelate the MgCl2 was measured using 15% ethanol and 15 mM Tris HCl pH 7.8 (in 1 mL of volume). The UV–VIS spectrum was recorded, before and after the addition of 6 mM MgCl2, from 250 nm to 600 nm.

[2] = Cytotoxicity, CellTiter-Glo 2.0; assay type: cell-based; conditions: human, TZM-bl cells
Protocol: (§1) Cytotoxicity was determined by the CellTiter-Glo 2.0 Luminescent Cell Viability Assay (Promega) according to the manufacturer’s protocol. Briefly, 15,000 cells/well of Tzm-bl were exposed to serial diluition of the drug and after 48 h, cell viability was calculated by measuring cellular ATP through a luciferase-based chemical reaction. The luminescent signal obtained from cells treated with serial dilution of the tested compounds, or the control (DMSO), was measured using the GloMax® Discover Multimode Microplate Reader (Promega) and processed with GraphPad PRISM software to calculate the half-maximal cytotoxic concentration (CC50). The DMSO curve, used as a control, was added in each plate and SPK-3 was tested in duplicate. The non-toxic dose corresponding to 90–100% cell viability was used as the maximum concentration in the antiviral assays.

[3] = test system: HIV-1 wild-type reference strain NL4-3; experiment: Anti-HIV-1 activity in TZM-bl cell line; assay type: cell-based; conditions: 48 h
Protocol: The antiviral activity of the investigated compound was evaluated by measuring the IC50 values against the HIV-1 wild-type reference strain NL4-3 in a TZM-bl cell line-based phenotypic assay, as previously published. Briefly, 15,000 cells/well were infected with the wild-type NL4-3 strain at multiplicity of infection (MOI) of 0.1 in the presence of serial diluitions of the drug in a 96-well plate format. […] Each compound was tested in duplicate and tested in two independent experiments. After 48 h, the cells were detached with the Glo-Lysis buffer (Promega, Madison, WI, USA), and the Bright-Glo Luciferase reagent (Promega) was added to each well as indicated by the manufacturer. Finally, the relative luminescence units were measured using the GloMax Discover instrument (Promega) as previously described and processed with GraphPad software to calculate half-maximal inhibitory concentration (IC50) values.

[4] = target: T1, HIV-1 RT-associated RNase H (Human immunodeficiency virus type 1 group M subtype B, UniProt P04585); experiment: RT-associated RNase H assay; assay type: biochemical; conditions: pure compounds; mean ± SD of three independent experiments
T1 construct: His-tagged p66/p51 HIV-1 RT was expressed in E. coli strain M15; His; made in house; host or cells: Escherichia coli M15
Protocol: (§2) Recombinant 6xHis IN protein, FLAG-IN, His-LEDGF and FLAG-LEDGF were expressed in Escherichia coli strain BL21 (DE3) and purified as previously described. His-tagged p66/p51 HIV-1 RT was expressed in E. coli strain M15 and purified as previously described.
The HIV-1 RNase H activity was determined as described by Esposito et al.. Briefly, 100 µL of volume of reaction containing 50 mM Tris HCl pH 7.8, 6 mM MgCl2, 1 mM DTT, 80 mM KCl, hybrid RNA/DNA (5′-[…]-3′-Fluorescein, 5′-[…]-3′-Dabcyl), and 3.8 nM RT was incubated for 1 h at 37 °C. The reaction was stopped by the addition of EDTA and measured with a plate reader at 490/528 nm.

[5] = target: T2, HIV-1 IN in the presence of LEDGF/p75 cellular cofactor (Human immunodeficiency virus type 1 group M subtype B, UniProt P04585); experiment: HTRF LEDGF-dependent HIV-1 IN activity assay; assay type: biochemical; conditions: pure compounds; mean ± SD of three independent experiments
T2 construct: Recombinant 6xHis IN protein, FLAG-IN, His-LEDGF and FLAG-LEDGF were expressed in Escherichia coli strain BL21 (DE3); made in house; host or cells: Escherichia coli BL21 (DE3)
Protocol: as §2
(§3) The evalaution of 3′-processing and strand-transfer IN reactions in the presence or in the absence of recombinant LEDGF/p75 cellular cofactor were performed as described previously. Briefly, recombinant IN was pre-incubated for 1 h at room temperature, in a buffer containing 20 mM HEPES pH 7.5, 1 mM DTT, 1% Glycerol, 20 mM MgCl2, 0.05% Brij-35 and 0.1 mg/mL BSA and increasing concentrations of the tested compounds.
(§4) Then, 9 nM Biotin3′-DNA donor substrate 50 nM 5′-Cy5-DNA acceptor substrate and 50 nM LEDGF/p75 protein (when required) were added to this reaction and incubated at 37 °C for 90 min.

TZM-bl cells = experiment: Cytotoxicity, CellTiter-Glo 2.0; assay type: cell-based; conditions: 48 h
Protocol: as §1

[6] = target: HIV-1 IN–LEDGF interaction (Human immunodeficiency virus type 1 group M subtype B, UniProt P04585); experiment: biochemical; assay type: binding
Protocol: Recombinant His-IN was pre-incubated for 30 min at room temperature in the presence of the tested compounds in a mixture reaction composed of 150 mM NaCl, 2 mM MgCl2, 0.1% Nonidet P-40, 1 mg/mL BSA, and 25 mM Tris pH 7.4 [12, 48]. After this time, FLAG-LEDGF was added and the mixture was incubated for 30 min at room temperature. A mixture of two specific antibodies (anti-His6-XL665 and anti-FLAG-EuCryptate) was then added to the reaction and incubated for 4 h at 4 °C.

[7] = target: T3, HIV-1 IN in the absence of LEDGF (Human immunodeficiency virus type 1 group M subtype B, UniProt P04585); experiment: biochemical; assay type: biochemical
T3 construct: Recombinant 6xHis IN protein, FLAG-IN, His-LEDGF and FLAG-LEDGF were expressed in Escherichia coli strain BL21 (DE3); made in house; host or cells: Escherichia coli BL21 (DE3)
Protocol: as §2, §3, §4

[8] = target: HIV-1 IN–IN subunit exchange (Human immunodeficiency virus type 1 group M subtype B, UniProt P04585); experiment: biochemical; assay type: binding
Protocol: (§5) This IN–IN binding assay allows the verification of higher-order, aberrant IN multimerization or IN–IN subunit exchange. Briefly, His and FLAG-tagged IN enzymes were added in a buffer containing 25 mM Tris pH 7.4, 150 mM NaCl, 2 mM MgCl2, 0.1% Nonidet P-40, and 1 mg/mL BSA [12, 48] with different concentrations of compounds, and incubated for 2.5 h at room temperature. After this time, a mixture of two specific antibodies (anti-His6-XL665 and anti-FLAG-EuCryptate) was added to the reaction and incubated at room temperature for 3 h. The HTRF signal was recorded as described in the previous paragraph.
(§6) The analysis of the signal in order to evaluate the aberrant IN multimerization and interference with the IN–IN subunit exchange or functional IN–IN interactions was performed as described above.

HIV-1 IN multimerization = test system: T4, HIV-1 IN multimerization; assay type: binding; conditions: concentration for 50% of the multimerization increase
T4 construct: His and FLAG-tagged IN enzymes were added in a buffer containing 25 mM Tris pH 7.4; made in house; host or cells: Escherichia coli BL21 (DE3)
Protocol: as §5, §6

| Compound | shift in the maximum of absorbance in the presence of Mg2+ [1] | CC50 at 48 h [2] | IC50 [4] | IC50 [5] | other results |
| --- | --- | --- | --- | --- | --- |
| CCOC(=O)C(=O)CC(=O)/C=C/c1cccn1Cc1ccc(F)cc1 [RDS1643, reference compound] | 16 nm | – | – | – | – |
| Cc1nnc(C(=O)NC(C)(C)c2nc(C(=O)NCc3ccc(F)cc3)c(O)c(=O)n2C)o1 [Raltegravir, reference compound] | – | > 100 µM | – | – | EC50 ([3]; Human immunodeficiency virus 1, NL43, TZM-bl, read-out: EC50 inhibiting HIV-1 viral replication): 0.0087 µM |
| CC#CC#C/C=C1\C=CC2(CCCO2)O1 (stereo not shown) [SPK1, tonghaosu] | 3.5 nm | – | 10 ± 5.4 µM | 1.69 ± 0.38 µM | – |
| CC#CC#C/C=C1\C=CC2(OC=CC2OC(C)=O)O1 (stereo not shown) [SPK2] | 4.5 nm | – | 20 ± 6.1 µM | 14.7 ± 0.3 µM | – |
| CC#CC#C/C=C1/O[C@@]2(OC=C[C@H]2OC(C)=O)[C@@H](O)[C@@H]1Cl [SPK3, flosculin A] | 3 nm | 50 µM | 3.6 ± 0.6 µM | 1.46 ± 0.16 µM | CC50 (TZM-bl cells): 50.1 ± 4.3 µM; IN–LEDGF Binding IC50 [6]: did not inhibit; IC50 ([6]; read-out: IN–LEDGF Binding IC50): > 100 µM; IC50 ([7]; absence of LEDGF, read-out: LEDGF-Independent IN Activity IC50): 27.3 ± 2.3 µM; decrease in potency on HIV-1 IN in the absence vs presence of LEDGF/p75 ([7]; ratio LEDGF-independent / LEDGF-dependent IC50): 18.7 fold; IC50 [8]: > 100 µM; IN–IN Subunit Exchange IC50 [8]: without any effect; EC50 inhibiting HIV-1 viral replication ([3]; NL4-3, TZM-bl, two independent experiments): did not inhibit; IN Multimerization MI50 (HIV-1 IN multimerization): 1 µM and 1.00 ± 0.01 µM |
